Experimental findings from patent US12662479B2 (Foghorn Therapeutics Inc., priority 2020, dated 2026) are described below.

The target in assay [1] is T1, HiBit-BRM fusion protein (Homo sapiens, UniProt P51531).
T1 construct: expressed in transfected cells
The assay is described as follows: HiBiT-BRM cell-based degradation assay (Nano-Glo HiBiT Lytic Detection, 24 h). As to conditions: HeLa cells expressing HiBiT-BRM; for DC50: read-out: BRM HiBit Degradation IC50; for BRM HiBit Degradation Maximum measured: top dose 30 μM. A digest of the protocol:
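HeLa cells stably expressing HiBiT-BRM were dosed with compounds (10-point 3-fold dilutions, 30 μM final top dose, duplicate) for 24 h. HiBiT signal was read by lytic LgBiT complementation luminescence. Percent degradation was normalised to DMSO (high control) and 2 μM of a reference BRM/BRG1 degrader (low control).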
On the technique in general: HiBiT is a short tag that completes a luciferase, so light tracks the accessible tagged protein.

Assay [2] has as its target T2, HiBit-BRG1 fusion protein (Homo sapiens, UniProt P51532).
T2 construct: expressed in transfected cells
The assay is described as follows: HiBiT-BRG1 cell-based degradation assay (Nano-Glo HiBiT Lytic Detection, 24 h). The following applies: HeLa cells expressing HiBit-BRG1 and LgBit; for DC50: read-out: BRG1 HiBit Degradation IC50; for Dmax: HeLa, top dose 30 μM, read-out: BRG1 HiBit Degradation Maximum measured. A digest of the protocol: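 Stable HeLa line expressing HiBiT-BRG1 and LgBiT, seeded at 5000 cells/well; luminescence read after lytic Nano-Glo HiBiT reagent and 10 min shaking at RT. % degradation normalised between DMSO (high control) and 2 μM reference BRM/BRG1 degrader (low control).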

SMILES strings stand for the structures. Structures can show the parent of a compound that is named as a salt. Bounds are passed on as bounds.

T2 sequence (P51532 whole entry, the tested form may be a part): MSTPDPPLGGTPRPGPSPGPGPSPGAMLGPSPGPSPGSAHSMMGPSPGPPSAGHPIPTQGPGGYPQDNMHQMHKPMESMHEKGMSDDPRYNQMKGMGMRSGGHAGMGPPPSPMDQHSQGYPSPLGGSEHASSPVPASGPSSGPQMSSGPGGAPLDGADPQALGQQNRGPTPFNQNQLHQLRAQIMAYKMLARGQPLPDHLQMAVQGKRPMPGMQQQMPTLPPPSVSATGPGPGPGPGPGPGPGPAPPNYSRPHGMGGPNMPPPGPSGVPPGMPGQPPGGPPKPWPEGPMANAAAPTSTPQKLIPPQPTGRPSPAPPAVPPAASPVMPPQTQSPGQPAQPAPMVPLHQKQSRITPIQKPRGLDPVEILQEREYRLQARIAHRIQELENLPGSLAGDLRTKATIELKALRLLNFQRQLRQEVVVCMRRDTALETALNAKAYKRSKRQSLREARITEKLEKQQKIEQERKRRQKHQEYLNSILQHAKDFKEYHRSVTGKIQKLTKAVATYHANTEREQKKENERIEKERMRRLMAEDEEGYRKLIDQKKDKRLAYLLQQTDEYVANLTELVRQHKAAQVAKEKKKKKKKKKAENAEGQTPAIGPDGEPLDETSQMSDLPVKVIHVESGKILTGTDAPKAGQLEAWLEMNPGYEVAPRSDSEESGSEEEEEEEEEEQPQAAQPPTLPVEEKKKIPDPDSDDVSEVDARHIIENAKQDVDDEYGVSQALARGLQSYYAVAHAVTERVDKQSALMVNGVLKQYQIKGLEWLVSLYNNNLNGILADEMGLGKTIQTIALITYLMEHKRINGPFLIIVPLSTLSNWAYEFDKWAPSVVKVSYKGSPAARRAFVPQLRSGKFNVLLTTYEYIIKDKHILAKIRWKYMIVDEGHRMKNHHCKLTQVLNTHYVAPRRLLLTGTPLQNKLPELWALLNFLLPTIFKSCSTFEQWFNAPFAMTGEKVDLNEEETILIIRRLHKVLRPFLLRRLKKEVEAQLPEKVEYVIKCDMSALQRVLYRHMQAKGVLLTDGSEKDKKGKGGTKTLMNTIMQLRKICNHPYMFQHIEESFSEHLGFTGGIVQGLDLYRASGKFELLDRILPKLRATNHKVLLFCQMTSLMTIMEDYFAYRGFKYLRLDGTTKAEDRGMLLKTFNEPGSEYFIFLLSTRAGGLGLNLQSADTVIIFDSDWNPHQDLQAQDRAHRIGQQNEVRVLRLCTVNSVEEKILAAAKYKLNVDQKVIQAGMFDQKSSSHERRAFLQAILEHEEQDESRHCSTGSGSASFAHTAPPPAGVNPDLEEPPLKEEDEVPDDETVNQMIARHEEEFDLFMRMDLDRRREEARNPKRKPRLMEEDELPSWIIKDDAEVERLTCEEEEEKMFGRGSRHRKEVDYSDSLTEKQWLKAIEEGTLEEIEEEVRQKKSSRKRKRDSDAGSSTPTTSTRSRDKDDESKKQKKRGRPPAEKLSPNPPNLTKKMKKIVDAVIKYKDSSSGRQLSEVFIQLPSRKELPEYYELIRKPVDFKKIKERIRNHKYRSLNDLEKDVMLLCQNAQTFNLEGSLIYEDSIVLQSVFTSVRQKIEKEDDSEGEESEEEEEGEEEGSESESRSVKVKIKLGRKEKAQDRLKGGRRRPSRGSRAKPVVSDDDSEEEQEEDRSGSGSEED
T1 sequence (P51531 whole entry, the tested form may be a part): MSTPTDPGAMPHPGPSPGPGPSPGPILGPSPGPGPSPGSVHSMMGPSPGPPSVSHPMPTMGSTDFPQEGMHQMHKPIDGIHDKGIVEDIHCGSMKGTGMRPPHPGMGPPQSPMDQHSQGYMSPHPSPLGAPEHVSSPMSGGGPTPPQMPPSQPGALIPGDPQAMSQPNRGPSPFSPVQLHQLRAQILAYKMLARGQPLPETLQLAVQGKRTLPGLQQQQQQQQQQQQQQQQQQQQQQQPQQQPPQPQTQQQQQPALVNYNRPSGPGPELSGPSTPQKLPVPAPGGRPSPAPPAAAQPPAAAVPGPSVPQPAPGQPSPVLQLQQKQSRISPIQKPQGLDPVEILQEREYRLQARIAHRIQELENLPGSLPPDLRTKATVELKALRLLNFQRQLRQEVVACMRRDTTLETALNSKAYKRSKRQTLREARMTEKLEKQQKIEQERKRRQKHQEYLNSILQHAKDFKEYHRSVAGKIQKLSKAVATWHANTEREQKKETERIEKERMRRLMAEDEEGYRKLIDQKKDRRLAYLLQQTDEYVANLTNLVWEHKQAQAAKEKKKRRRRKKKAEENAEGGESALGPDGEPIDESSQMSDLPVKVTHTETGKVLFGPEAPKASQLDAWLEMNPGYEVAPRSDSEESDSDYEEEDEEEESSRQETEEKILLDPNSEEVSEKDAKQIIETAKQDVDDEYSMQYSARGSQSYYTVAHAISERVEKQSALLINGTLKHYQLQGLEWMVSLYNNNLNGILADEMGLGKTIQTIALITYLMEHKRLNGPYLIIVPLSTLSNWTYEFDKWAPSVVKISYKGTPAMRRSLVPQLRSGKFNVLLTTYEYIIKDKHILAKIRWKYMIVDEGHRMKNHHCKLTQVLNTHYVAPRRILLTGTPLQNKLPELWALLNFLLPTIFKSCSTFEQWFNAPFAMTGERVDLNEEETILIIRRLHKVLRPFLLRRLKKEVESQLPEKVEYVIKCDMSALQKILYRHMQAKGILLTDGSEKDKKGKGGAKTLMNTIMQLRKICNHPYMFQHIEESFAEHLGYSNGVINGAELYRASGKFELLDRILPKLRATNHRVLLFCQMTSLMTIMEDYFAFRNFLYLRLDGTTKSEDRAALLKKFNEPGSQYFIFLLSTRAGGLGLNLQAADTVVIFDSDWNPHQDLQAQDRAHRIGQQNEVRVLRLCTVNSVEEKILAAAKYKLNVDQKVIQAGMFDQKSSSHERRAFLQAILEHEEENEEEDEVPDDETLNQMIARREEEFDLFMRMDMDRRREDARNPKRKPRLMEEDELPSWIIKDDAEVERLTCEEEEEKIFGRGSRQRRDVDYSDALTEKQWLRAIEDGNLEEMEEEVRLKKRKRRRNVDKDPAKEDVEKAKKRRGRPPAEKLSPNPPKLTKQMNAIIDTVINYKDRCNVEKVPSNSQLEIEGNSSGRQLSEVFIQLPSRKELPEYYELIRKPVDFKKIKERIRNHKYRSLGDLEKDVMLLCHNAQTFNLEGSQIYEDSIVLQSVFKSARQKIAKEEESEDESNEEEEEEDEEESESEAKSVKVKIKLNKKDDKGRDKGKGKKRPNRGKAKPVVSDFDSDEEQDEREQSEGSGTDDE

On to `CS(=O)(=O)n1ccc(C(=O)N[C@@H](CCOCCCC(=O)N2CCC(CN3CCN(c4ccc5c(c4)C(=O)N(C4CCC(=O)NC4=O)C5=O)CC3)CC2)C(=O)Nc2nc(-c3ccccc3)cs2)c1` (stereo partly drawn) [Compound 220, N-((2S)-4-(4-(4-((4-(2-(2,6-dioxopiperidin-3-yl)-1,3-dioxoisoindolin-5-yl)piperazin-1-yl)methyl)piperidin-1-yl)-4-oxobutoxy)-1-oxo-1-((4-phenylthiazol-2-yl)amino)butan-2-yl)-1-(methylsulfonyl)-1H-pyrrole-3-carboxamide formate], for which, in assay [1], the DC50 was above 10000 nM and the “BRM HiBit Degradation Maximum measured” value is “C (‘C’ = Maximum degradation <50%)”. Also, in assay [2], the DC50 was above 10000 nM and the Dmax is below 50%.
For `CS(=O)(=O)n1ccc(C(=O)N[C@@H](COCc2ccc(C(=O)N3CCN(CCCCCOc4ccc5c(c4)C(=O)N(C4CCC(=O)NC4=O)C5=O)CC3)cc2)C(=O)Nc2nc(-c3ccccc3)cs2)c1` (stereo partly drawn) [Compound 233, (2S)-3-([4-[4-(5-[[2-(2,6-dioxopiperidin-3-yl)-1,3-dioxoisoindol-5-yl]oxy]pentyl)piperazine-1-carbonyl]phenyl]methoxy)-2-[(1-methanesulfonylpyrrol-3-yl)formamido]-N-(4-phenyl-1,3-thiazol-2-yl)propanamide], in assay [1], the DC50 is above 10000 nM and the “BRM HiBit Degradation Maximum measured” value was “C (‘C’ = Maximum degradation <50%)”. In assay [2], the DC50 was in the range of 100 to 1000 nM and the Dmax lay within 50 to 75%.
On the same counts, the results for `CS(=O)(=O)n1ccc(C(=O)N[C@@H](COCc2ccc(CNC(=O)C3CCN(CCOc4ccc5c(c4)C(=O)N(C4CCC(=O)NC4=O)C5=O)CC3)cc2)C(=O)Nc2nc(-c3ccccc3)cs2)c1` (stereo partly drawn) [Compound 216, 1-(2-[[2-(2,6-dioxopiperidin-3-yl)-1,3-dioxoisoindol-5-yl]oxy]ethyl)-N-[(4-[[(2S)-2-[(1-methanesulfonylpyrrol-3-yl)formamido]-2-[(4-phenyl-1,3-thiazol-2-yl)carbamoyl]ethoxy]methyl]phenyl)methyl]piperidine-4-carboxamide; formic acid] are 100 to 1000 nM, “A (‘A’ = Maximum degradation >75%)”, 100 to 1000 nM and above 75%.
For the molecule `Cc1ncsc1-c1ccc(CNC(=O)[C@@H]2C[C@@H](O)CN2C(=O)[C@@H](NC(=O)CCCCCCCCCCCCC(=O)NCc2cccc(-c3cccc(-c4csc(NC(=O)CNC(=O)c5ccn(S(C)(=O)=O)c5)n4)c3)c2)C(C)(C)C)cc1` [Compound 118, N1-((S)-1-((2S,4R)-4-hydroxy-2-((4-(4-methylthiazol-5-yl)benzyl)carbamoyl)pyrrolidin-1-yl)-3,3-dimethyl-1-oxobutan-2-yl)-N14-((3′-(2-(2-(1-(methylsulfonyl)-1H-pyrrole-3-carboxamido)acetamido)thiazol-4-yl)-[1,1′-biphenyl]-3-yl)methyl)tetradecanediamide], in assay [1], the DC50 was 100 to 1000 nM; the “BRM HiBit Degradation Maximum measured” value was “B (‘B’ = Maximum degradation ≥50% and ≤75%)”. Further, in assay [2], the DC50 is 100 to 1000 nM and the Dmax was in the range of 50 to 75%.
With `CS(=O)(=O)n1ccc(C(=O)NCC(=O)Nc2nc(-c3cccc(-c4cccc(CNC(=O)CCCCCCCCNc5ccc6c(c5)C(=O)N(C5CCC(=O)NC5=O)C6=O)c4)c3)cs2)c1` (stereo not shown) [Compound 54, N-[2-[[4-[3-[3-[[9-[[2-(2,6-dioxo-3-piperidyl)-1,3-dioxo-isoindolin-5-yl]amino]nonanoylamino]methyl]-phenyl]phenyl]thiazol-2-yl]amino]-2-oxo-ethyl]-1-methylsulfonyl-pyrrole-3-carboxamide], in assay [1], the DC50 is above 10000 nM and the “BRM HiBit Degradation Maximum measured” value was “C (‘C’ = Maximum degradation <50%)”. Also, in assay [2], the DC50 is above 10000 nM and the Dmax was below 50%.
As for `Cc1ncsc1-c1ccc(CNC(=O)[C@@H]2C[C@@H](O)CN2C(=O)[C@@H](NC(=O)COCCOCC(=O)NCCOc2cc(-c3cccc(-c4csc(NC(=O)CNC(=O)c5ccn(S(C)(=O)=O)c5)n4)c3)ccn2)C(C)(C)C)cc1` [Compound 71, N-(2-((4-(3-(2-(((S)-13-((2S,4R)-4-hydroxy-2-((4-(4-methylthiazol-5-yl)benzyl)carbamoyl)pyrrolidine-1-carbonyl)-14,14-dimethyl-4,11-dioxo-6,9-dioxa-3,12-diazapentadecyl)oxy)pyridin-4-yl)phenyl)thiazol-2-yl)amino)-2-oxoethyl)-1-(methylsulfonyl)-1H-pyrrole-3-carboxamide], in assay [1], the DC50 is above 10000 nM and the “BRM HiBit Degradation Maximum measured” value is reported as “C (‘C’ = Maximum degradation <50%)”. Also, in assay [2], the DC50 is above 10000 nM and the Dmax was below 50%.
For the molecule `CS(=O)(=O)n1ccc(C(=O)NCC(=O)Nc2nc(-c3cccc(-c4ccnc(C5(C(=O)NCCCCCCNc6ccc7c(c6)C(=O)N(C6CCC(=O)NC6=O)C7=O)CC5)c4)c3)cs2)c1` (stereo not shown) [Compound 104, N-[2-[[4-[3-[2-[1-[6-[[2-(2,6-dioxo-3-piperidyl)-1,3-dioxo-isoindolin-5-yl]amino]hexylcarbamoyl]cyclopropyl]-4-pyridyl]phenyl]thiazol-2-yl]amino]-2-oxo-ethyl]-1-methylsulfonyl-pyrrole-3-carboxamide], in assay [1], the DC50 is below 100 nM and the “BRM HiBit Degradation Maximum measured” value is “A (‘A’ = Maximum degradation >75%)”. In addition, in assay [2], the DC50 was below 100 nM and the Dmax is above 75%.
For the molecule `CS(=O)(=O)n1ccc(C(=O)NCC(=O)Nc2nc(-c3cccc(-c4ccnc(C5(C(=O)NCCOCCOCCNC(=O)COc6cccc7c6C(=O)N(C6CCC(=O)NC6=O)C7=O)CC5)c4)c3)cs2)c1` (stereo not shown) [Compound 128], in assay [1], the DC50 was above 10000 nM and the “BRM HiBit Degradation Maximum measured” value is recorded as “C (‘C’ = Maximum degradation <50%)”. Besides, in assay [2], the DC50 is above 10000 nM and the Dmax was below 50%.
For `CS(=O)(=O)n1ccc(C(=O)N[C@@H](COCc2ccc(C(=O)NCCCCCNc3ccc4c(c3)C(=O)N(C3CCC(=O)NC3=O)C4=O)cc2)C(=O)Nc2nc(-c3ccccc3)cs2)c1` (stereo partly drawn) [Compound 243, N-(5-[[2-(2,6-dioxopiperidin-3-yl)-1,3-dioxoisoindol-5-yl]amino]pentyl)-4-[[(2S)-2-[(1-methanesulfonylpyrrol-3-yl)formamido]-2-[(4-phenyl-1,3-thiazol-2-yl)carbamoyl]ethoxy]methyl]benzamide], in assay [1], the DC50 lay in the range of 100 to 1000 nM; the “BRM HiBit Degradation Maximum measured” value was “B (‘B’ = Maximum degradation ≥50% and ≤75%)”. Further, in assay [2], the DC50 lay within 100 to 1000 nM and the Dmax was above 75%.
As for `CN(CC(=O)NCCOCCOCCNc1cccc2c1C(=O)N(C1CCC(=O)NC1=O)C2=O)c1cc(-c2cccc(-c3csc(NC(=O)CNC(=O)c4ccn(S(C)(=O)=O)c4)n3)c2)ccn1` (stereo not shown) [Compound 9, N-(2-((4-(3-(2-((2-((2-(2-(2-((2-(2,6-dioxopiperidin-3-yl)-1,3-dioxoisoindolin-4-yl)amino)ethoxy)ethoxy)ethyl)amino)-2-oxoethyl)(methyl)amino)pyridin-4-yl)phenyl)thiazol-2-yl)amino)-2-oxoethyl)-1-(methylsulfonyl)-1H-pyrrole-3-carboxamide], in assay [1], the DC50 is above 10000 nM and the “BRM HiBit Degradation Maximum measured” value is given as “C (‘C’ = Maximum degradation <50%)”. Besides, in assay [2], the DC50 was above 10000 nM and the Dmax was below 50%.
